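Interpolation was linear, between the two tested concentrations surrounding the appropriate level; five concentrations were tested over 48 hours in 96-well plates. GI50: concentration for 50% inhibition of growth. TGI: concentration producing complete growth inhibition.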
Assays:
Experiment in all cases: DTP human tumour cell line panel, 48 h
M14 melanoma = tested on: M14 melanoma
CCRF-CEM leukemia = tested on: CCRF-CEM leukemia
LOX IMVI melanoma = tested on: LOX IMVI melanoma
COLO 205 colon = tested on: COLO 205 colon
UO-31 renal = tested on: UO-31 renal
HOP-62 NSCLC = tested on: HOP-62 NSCLC
T-47D breast = tested on: T-47D breast
U251 CNS = tested on: U251 CNS
MALME-3M melanoma = tested on: MALME-3M melanoma
A498 renal = tested on: A498 renal

Compound	TGI (M14 melanoma) [µM]	TGI (CCRF-CEM leukemia) [µM]	TGI (LOX IMVI melanoma) [µM]	TGI (COLO 205 colon) [µM]	TGI (UO-31 renal) [µM]	TGI (HOP-62 NSCLC) [µM]	TGI (T-47D breast) [µM]	TGI (U251 CNS) [µM]	TGI (MALME-3M melanoma) [µM]	GI50 (M14 melanoma) [µM]	GI50 (LOX IMVI melanoma) [µM]	GI50 (COLO 205 colon) [µM]	GI50 (A498 renal) [µM]	TGI (A498 renal) [µM]	GI50 (UO-31 renal) [µM]	GI50 (HOP-62 NSCLC) [µM]	GI50 (T-47D breast) [µM]	GI50 (U251 CNS) [µM]	GI50 (CCRF-CEM leukemia) [µM]	GI50 (MALME-3M melanoma) [µM]
CN1C(=O)C2(c3ccccc31)C1CC3C(CO1)C1C2C3(CO)CN1C#N (centres undefined)	> 100	> 100	> 100	> 100	> 100	> 100	> 100	> 100	> 100	–	–	–	–	–	–	–	–	–	–	–
CC(=O)OCC1OC(n2ncc(=O)[nH]c2=O)C(OC(C)=O)C1OC(C)=O (centres undefined)	> 100	> 100	> 100	> 100	–	> 100	> 100	> 100	> 100	–	–	–	–	–	–	–	–	–	–	–
COc1ccc(NC(=O)c2ccc(NC3=C(Cl)C(=O)N(Cc4ccccc4)C3=O)cc2)c(OC)c1	48	–	> 100	> 100	> 100	53.7	> 100	86.3	–	18.5	30.1	44.4	61.1	> 100	40.5	19	38.9	27.2	–	–
CN(C)CCNC(=O)c1ccc2oc3cc4ccccc4c(=O)n3c2c1	> 100	–	> 100	> 100	47.5	> 100	> 100	> 100	–	52	42.2	32.1	–	–	19.6	> 100	34.6	34.3	–	–
CN(C)c1ccccc1[CH2][Ga]([Cl])[CH2]c1ccccc1N(C)C	2.85	4.82	3.18	2.36	–	2.57	3.78	2.41	3.32	1.3	1.13	1.04	–	–	–	1.21	1.39	1.16	0.399	1.75
O=C(O)Cc1ccc(N=Nc2c(O)c(C(=O)O)cc3ccccc23)cc1	> 100	> 100	–	> 100	> 100	> 100	> 100	> 100	> 100	–	–	–	–	–	–	–	–	–	–	–
Cc1c2c(nn1-c1ccc(S(=O)(=O)NC(=S)NC(=O)c3ccccc3)cc1)-c1ccccc1CC2	> 100	> 100	> 100	> 100	> 100	> 100	> 100	> 100	–	> 100	50.3	44.9	–	–	> 100	> 100	44.9	43.3	> 100	–
O=C1CC(N2C(=O)/C(=C/C(Cl)=C\c3ccc([N+](=O)[O-])cc3)SC2=S)C(=O)N1c1ccc(O)cc1 (centres undefined)	3.31	3.87	–	5.04	2.79	6.63	15.8	2.21	5.79	1.46	–	1.83	–	–	1.35	2.26	2.45	0.597	0.385	2.31
c1ccc2c(CNCCCCCCCCNCc3cccc4ccccc34)cccc2c1	3.18	5.21	2.52	3.43	3.45	30.1	–	3.13	3.41	–	–	–	–	28.4	–	–	–	–	–	–
COc1ccc(-c2[nH]nc(N)c2-c2cc(OC)c(OC)c(OC)c2)cc1	3.46	–	> 100	0.16	66.7	> 100	–	> 100	> 100	0.0281	0.0756	0.0331	0.021	0.0832	0.0644	0.0442	–	0.0424	0.0325	0.0337
Cc1ccsc1-c1ccc2c(c1)COC2(CCCN(C)C)c1ccc(F)cc1 (centres undefined)	3.46	8.56	3.04	4.19	6.26	12.8	6.92	4.24	2.8	1.73	1.64	1.92	–	–	1.7	3.16	2.15	1.95	2.73	1.39
COc1cc(O)c2c(c1)C(=O)C1=C(C2=O)C(O)C[C@@](C)(O)C1 (some centres undefined)	2.02	> 24.9	1.68	0.844	6.6	21.2	–	6.34	2.11	–	–	–	–	3.29	–	–	–	–	–	–
O=C1c2cc(F)ccc2-c2c1c1ccc([N+](=O)[O-])cc1c(=O)n2CCCBr	46.3	> 100	38.2	> 100	> 100	8.64	> 100	> 100	> 100	13.3	7.62	46.8	–	–	13.9	2.28	7.53	9.87	15.6	66.3
